Results published in patent publication US20050025847A1, “Microbicidal compositions and method of use” (Program for Appropriate Technology in Health, priority 2003, published 2005).

What was measured:
[1] = test system: lactobacilli; assay: effect on lactobacilli; assay type: cell-based
Description: (§1) A preferred microbicidal agent according to the present invention is bisabolol. In particular, alpha-bisabolol (levomenol) is a preferred microbicidal agent. Bisabolol is a naturally occurring unsaturated monocyclic sesquiterpene alcohol. Alpha-bisabolol is used in a wide range or cosmetic formulations as a skin conditioning agent at concentrations ranging from approximately 0.001% in lipstick to approximately 1% in underarm deodorants. Bisabolol has been used for cosmetic purposes in India and worldwide in skin, oropharyngeal, nasal and vaginal products such as douches up to concentrations of approximately 5%, but has not been used in the prevention or treatment of STIs and/or common vaginal diseases. Bisabolol is the main active principle of chamomile (Matricaria chamomilla) and up to approximately 50% of the essential oil of chamomile consists of alpha-bisabolol.

[2] = oral and dermal toxicity, genotoxicity, reproductive/developmental toxicity, sensitization and photosensitization studies; details: oral, dermal, sensitization, photosensitization studies
Description: as §1

[3] = test system: HIV; assay: inhibition of HIV infectivity; assay type: cell-based
[4] = test system: Trichophyton mentagrophytes; details: isolates of Trichophyton mentagrophytes; cited from earlier work
[5] = test system: Candida albicans; details: isolates of Candida albicans; cited from earlier work
[6] = test system: Trichophyton rubrum; details: isolates of Trichophyton rubrum; cited from earlier work
[7] = test system: Epidermophyton floccosum; details: isolates of Epidermophyton floccosum; cited from earlier work
[8] = test system: Microsporum canis; details: isolates of Microsporum canis; cited from earlier work

Row | Compound | effect on lactobacilli ([1]; concentration 2 mg/ml) | effect on lactobacilli ([1]; concentration 10 mg/ml) | toxicity [2] | anti-HIV activity [3] | IC50, inhibition of HIV infectivity ([3]; mixed with the virus and cells) | IC50, inhibition of HIV infectivity ([3]; mixed with the virus for 5 minutes before washing) | inactivation of HIV ([3]; washed away after short-term treatment) | fungicidal activity in vitro [4] | fungicidal activity in vitro [5] | fungicidal activity in vitro [6] | fungicidal activity in vitro [7] | fungicidal activity in vitro [8]
1 | CC(C)=CCCC(C)(O)C1CC=C(C)CC1 (stereo not drawn) [Bisabolol, 3-Cyclohexene-1-methanol, alpha,4-dimethyl-alpha-(4-methyl-3-pentenyl)] | no effect | no effect | little toxicity | very high anti-HIV activity | 0.6 µg/mL | 1 µg/mL | inactivates HIV |  |  |  |  | 
2 | Cc1cc(C2CCCCC2)n(O)c(=O)c1.NCCO [Ciclopirox Olamine, 6-Cyclohexyl-1-hydroxy-4-methyl-2-(1H)-pyridone ethanolamine salt] |  |  |  |  |  |  |  | exhibits fungicidal activity | exhibits fungicidal activity | exhibits fungicidal activity | exhibits fungicidal activity | exhibits fungicidal activity
